For orientation: EC50 means the concentration giving half of the maximal effect. Broadly, the IC50 is the concentration that inhibits the measured activity by half. The term AC50 denotes the concentration giving half of the maximal activity seen. What is called Ki is the dissociation constant of the complex between target and ligand, obtained from inhibition or displacement.

Structures are written as SMILES. Active and inactive are the calls of the source. Bounds are passed on as bounds.

The record followed here is ChEMBL document CHEMBL1201862, “PubChem BioAssay data set” (2004).

Experiment [1] concerns the target T1, Protein RecA (Mycobacterium tuberculosis, UniProt P9WHJ3).
T1 sequence (P9WHJ3 whole entry): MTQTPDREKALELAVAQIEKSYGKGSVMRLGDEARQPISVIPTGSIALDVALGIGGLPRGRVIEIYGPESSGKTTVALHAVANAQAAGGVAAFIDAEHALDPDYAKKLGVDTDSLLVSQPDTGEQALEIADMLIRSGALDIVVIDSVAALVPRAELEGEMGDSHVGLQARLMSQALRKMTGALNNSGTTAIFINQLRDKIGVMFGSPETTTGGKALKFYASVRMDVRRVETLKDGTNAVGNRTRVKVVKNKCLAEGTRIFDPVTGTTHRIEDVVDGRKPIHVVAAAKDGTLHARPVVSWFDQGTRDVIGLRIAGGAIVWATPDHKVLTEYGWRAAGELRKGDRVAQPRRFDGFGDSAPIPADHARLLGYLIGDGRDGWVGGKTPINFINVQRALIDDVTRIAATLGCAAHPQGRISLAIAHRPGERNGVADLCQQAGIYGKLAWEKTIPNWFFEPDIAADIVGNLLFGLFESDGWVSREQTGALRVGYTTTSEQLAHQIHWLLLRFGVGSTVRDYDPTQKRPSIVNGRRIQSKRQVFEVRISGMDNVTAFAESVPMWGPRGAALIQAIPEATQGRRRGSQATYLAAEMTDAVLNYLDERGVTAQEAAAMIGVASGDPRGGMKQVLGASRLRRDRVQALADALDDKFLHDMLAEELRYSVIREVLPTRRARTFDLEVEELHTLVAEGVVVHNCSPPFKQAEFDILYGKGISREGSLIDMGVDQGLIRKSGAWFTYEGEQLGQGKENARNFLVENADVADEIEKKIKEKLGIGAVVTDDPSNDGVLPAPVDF
Description: Fluorescence Cell-Free Homogeneous Dose Retest to Identify Inhibitors of RecA-Intein Splicing Activity. [Related pubchem assays (depositor defined):AID2097, AID2223, AID489010, AID492950]. The class given is functional.

Experiment [2] can be described thus: Luminescence-based dose response cell-based high throughput screening assay for cytotoxic compounds using the IEC-6 intestinal epithelial cell line. [Related pubchem assays: 1858 (Summary AID.), 1825 (Counterscreen.), 1907 (Confirmation screen.)]. It is filed as functional. Background: A counterscreen serves to expose hits that act by an unwanted route or on another target.

Experiment [3] in a line: NIH-3T3 fibroblast cytotoxicity, dose response, cytotoxicity control, cell-based, fluorescence, Alamar Blue, secondary assay (AID 2327).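 Further: NIH-3T3 mouse fibroblasts cultured with fluconazole at 8 µg/mL.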 It is filed as functional. (Resazurin is reduced to fluorescent resorufin, in cell work by metabolically active cells.)
The nature of experiment [4]: non-specific 3'UTR reporter inhibition in Clone20-Shn3RL – cell-based, Renilla luciferase, cherry-picked, counter-screen for Shn3 inhibitor project, dose response (AID 624133). The class given is functional.
The nature of experiment [5]: cells. The class given is functional, cell-based.
The target of experiment [6] is Cyclin-dependent kinase 5 (Homo sapiens, UniProt Q00535). It is filed as functional.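 Further: CDK5 measured as one member of a kinase profiling panel.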
Experiment [7] has as its target Serine/threonine-protein kinase TAO1 (Homo sapiens, UniProt Q7L7X3). It is filed as functional.
The target of experiment [8] is T2, cAMP-dependent protein kinase catalytic subunit PRKX (Homo sapiens, UniProt P51817).
T2 sequence (P51817 whole entry): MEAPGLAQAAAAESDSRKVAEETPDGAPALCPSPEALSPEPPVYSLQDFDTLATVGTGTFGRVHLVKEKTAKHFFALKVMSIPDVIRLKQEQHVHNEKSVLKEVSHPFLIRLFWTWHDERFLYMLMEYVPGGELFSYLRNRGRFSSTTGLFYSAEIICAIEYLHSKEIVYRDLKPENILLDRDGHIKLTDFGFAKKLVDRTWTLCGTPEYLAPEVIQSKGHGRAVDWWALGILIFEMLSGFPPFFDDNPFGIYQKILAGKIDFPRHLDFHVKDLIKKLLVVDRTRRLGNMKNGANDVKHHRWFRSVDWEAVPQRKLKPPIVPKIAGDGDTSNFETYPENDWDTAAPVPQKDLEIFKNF
It is filed as functional.

For experiment [9], the target named is Vascular endothelial growth factor receptor 2 (Homo sapiens, UniProt P35968). The class given is functional.
Experiment [10] addresses Cyclin-dependent kinase 7 (Homo sapiens, UniProt P50613). It is filed as functional.
In experiment [11] the target is Aurora kinase A (Homo sapiens, UniProt O14965). The class given is functional.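 Further: value from the Navigating the Kinome kinase panel profiling, panel entry STK6.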
Experiment [12] concerns the target Serine/threonine-protein kinase D3 (Homo sapiens, UniProt O94806). It is filed as functional.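 Further: determined within a kinase panel screen, with PRKCN as the panel member.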
Experiment [13] has as its target Focal adhesion kinase 1 (Homo sapiens, UniProt Q05397). It is filed as functional.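 Further: measured as one member of a kinome panel.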
Experiment [14] concerns the target Fibroblast growth factor receptor 1 (Homo sapiens, UniProt P11362). The class given is functional.
In experiment [15] the target is Activated CDC42 kinase 1 (Homo sapiens, UniProt Q07912). The experiment can be described thus: Navigating the Kinome. Panel member name: ACK1. The class given is functional.
For experiment [16], the target named is Tyrosine-protein kinase Fyn (Homo sapiens, UniProt P06241). It is filed as functional.
Experiment [17] deals with Glycogen synthase kinase-3 alpha (Homo sapiens, UniProt P49840). It is filed as functional.
For experiment [18], the target named is Dual specificity protein kinase CLK2 (Homo sapiens, UniProt P49760). The class given is functional.
The target in experiment [19] is Leukocyte tyrosine kinase receptor (Homo sapiens, UniProt P29376). The experiment can be described thus: Navigating the Kinome. Panel member name: LTK. It is filed as functional.
The target of experiment [20] is Calcium/calmodulin-dependent protein kinase type II subunit alpha (Homo sapiens, UniProt Q9UQM7). The experiment can be described thus: Navigating the Kinome. Panel member name: CAMK2A. The class given is functional.
For experiment [21], the target named is Ribosomal protein S6 kinase alpha-3 (Homo sapiens, UniProt P51812). It is filed as functional.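 Further: measured within a kinome-wide profiling panel.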
Experiment [22] deals with ALK tyrosine kinase receptor (Homo sapiens, UniProt Q9UM73). The class given is functional.
Experiment [23] deals with cAMP-dependent protein kinase catalytic subunit alpha (Homo sapiens, UniProt P17612). It is filed as functional.
The target in experiment [24] is Inhibitor of nuclear factor kappa-B kinase subunit epsilon (Homo sapiens, UniProt Q14164). Description: Navigating the Kinome. Panel member name: IKBKE. It is filed as functional.
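Wherever IC50 is given: cell viability measured after two days of compound exposure.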

Glycogen synthase kinase-3 alpha, sequence (P49840 whole entry): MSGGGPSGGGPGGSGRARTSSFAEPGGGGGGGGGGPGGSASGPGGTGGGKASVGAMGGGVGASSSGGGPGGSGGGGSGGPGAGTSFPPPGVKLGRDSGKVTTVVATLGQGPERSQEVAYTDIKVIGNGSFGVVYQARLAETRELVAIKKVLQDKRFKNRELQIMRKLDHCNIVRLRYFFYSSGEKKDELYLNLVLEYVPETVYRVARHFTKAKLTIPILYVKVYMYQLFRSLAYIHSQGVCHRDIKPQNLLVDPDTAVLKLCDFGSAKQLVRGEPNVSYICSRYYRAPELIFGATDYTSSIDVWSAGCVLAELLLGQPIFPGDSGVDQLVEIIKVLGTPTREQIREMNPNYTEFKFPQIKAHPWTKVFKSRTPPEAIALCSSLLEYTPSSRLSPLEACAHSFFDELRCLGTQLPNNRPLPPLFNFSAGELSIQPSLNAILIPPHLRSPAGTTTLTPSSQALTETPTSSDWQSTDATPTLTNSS
Calcium/calmodulin-dependent protein kinase type II subunit alpha, sequence (Q9UQM7 whole entry): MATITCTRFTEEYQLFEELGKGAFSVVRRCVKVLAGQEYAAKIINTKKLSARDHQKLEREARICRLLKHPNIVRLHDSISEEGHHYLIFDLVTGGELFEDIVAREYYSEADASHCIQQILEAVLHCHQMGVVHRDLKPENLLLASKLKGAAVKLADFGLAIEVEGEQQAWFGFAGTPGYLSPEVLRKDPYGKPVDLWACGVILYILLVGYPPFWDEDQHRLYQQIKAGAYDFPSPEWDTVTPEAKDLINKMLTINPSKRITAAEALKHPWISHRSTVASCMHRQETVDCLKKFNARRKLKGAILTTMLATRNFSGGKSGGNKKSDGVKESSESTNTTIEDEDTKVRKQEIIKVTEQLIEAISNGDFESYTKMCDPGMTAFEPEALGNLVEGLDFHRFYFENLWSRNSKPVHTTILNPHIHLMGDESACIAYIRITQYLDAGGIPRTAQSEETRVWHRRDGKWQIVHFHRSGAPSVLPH
Dual specificity protein kinase CLK2, sequence (P49760 whole entry): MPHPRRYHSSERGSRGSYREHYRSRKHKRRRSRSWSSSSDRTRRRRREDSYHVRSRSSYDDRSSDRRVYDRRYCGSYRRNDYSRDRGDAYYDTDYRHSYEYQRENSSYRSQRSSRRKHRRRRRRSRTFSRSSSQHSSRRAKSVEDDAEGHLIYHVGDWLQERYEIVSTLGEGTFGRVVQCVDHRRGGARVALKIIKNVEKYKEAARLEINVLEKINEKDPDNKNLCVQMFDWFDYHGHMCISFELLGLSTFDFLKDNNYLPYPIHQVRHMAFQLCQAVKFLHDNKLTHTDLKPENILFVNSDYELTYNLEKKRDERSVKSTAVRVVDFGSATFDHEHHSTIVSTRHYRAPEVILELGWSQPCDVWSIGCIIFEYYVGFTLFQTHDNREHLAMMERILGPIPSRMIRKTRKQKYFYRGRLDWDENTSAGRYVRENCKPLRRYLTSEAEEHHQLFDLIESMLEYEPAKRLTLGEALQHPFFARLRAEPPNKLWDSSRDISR
Inhibitor of nuclear factor kappa-B kinase subunit epsilon, sequence (Q14164 whole entry): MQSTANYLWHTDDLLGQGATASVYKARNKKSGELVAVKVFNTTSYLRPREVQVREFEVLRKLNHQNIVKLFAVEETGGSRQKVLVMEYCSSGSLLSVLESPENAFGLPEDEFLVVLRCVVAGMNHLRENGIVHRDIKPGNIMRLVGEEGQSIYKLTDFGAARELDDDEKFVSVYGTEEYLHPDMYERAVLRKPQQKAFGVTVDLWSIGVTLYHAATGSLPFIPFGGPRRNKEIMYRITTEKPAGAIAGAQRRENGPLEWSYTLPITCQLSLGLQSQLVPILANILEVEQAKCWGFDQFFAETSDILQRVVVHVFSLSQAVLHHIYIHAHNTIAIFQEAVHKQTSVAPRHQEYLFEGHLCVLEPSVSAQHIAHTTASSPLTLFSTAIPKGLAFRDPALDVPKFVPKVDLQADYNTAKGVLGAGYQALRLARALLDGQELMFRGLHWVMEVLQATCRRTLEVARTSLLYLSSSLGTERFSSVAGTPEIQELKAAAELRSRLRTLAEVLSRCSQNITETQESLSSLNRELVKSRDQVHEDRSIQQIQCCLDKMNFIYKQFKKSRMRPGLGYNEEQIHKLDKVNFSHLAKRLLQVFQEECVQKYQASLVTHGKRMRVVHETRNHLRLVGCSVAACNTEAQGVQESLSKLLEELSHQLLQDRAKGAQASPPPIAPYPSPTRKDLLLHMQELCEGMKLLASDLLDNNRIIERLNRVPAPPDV
Activated CDC42 kinase 1, sequence (Q07912 whole entry): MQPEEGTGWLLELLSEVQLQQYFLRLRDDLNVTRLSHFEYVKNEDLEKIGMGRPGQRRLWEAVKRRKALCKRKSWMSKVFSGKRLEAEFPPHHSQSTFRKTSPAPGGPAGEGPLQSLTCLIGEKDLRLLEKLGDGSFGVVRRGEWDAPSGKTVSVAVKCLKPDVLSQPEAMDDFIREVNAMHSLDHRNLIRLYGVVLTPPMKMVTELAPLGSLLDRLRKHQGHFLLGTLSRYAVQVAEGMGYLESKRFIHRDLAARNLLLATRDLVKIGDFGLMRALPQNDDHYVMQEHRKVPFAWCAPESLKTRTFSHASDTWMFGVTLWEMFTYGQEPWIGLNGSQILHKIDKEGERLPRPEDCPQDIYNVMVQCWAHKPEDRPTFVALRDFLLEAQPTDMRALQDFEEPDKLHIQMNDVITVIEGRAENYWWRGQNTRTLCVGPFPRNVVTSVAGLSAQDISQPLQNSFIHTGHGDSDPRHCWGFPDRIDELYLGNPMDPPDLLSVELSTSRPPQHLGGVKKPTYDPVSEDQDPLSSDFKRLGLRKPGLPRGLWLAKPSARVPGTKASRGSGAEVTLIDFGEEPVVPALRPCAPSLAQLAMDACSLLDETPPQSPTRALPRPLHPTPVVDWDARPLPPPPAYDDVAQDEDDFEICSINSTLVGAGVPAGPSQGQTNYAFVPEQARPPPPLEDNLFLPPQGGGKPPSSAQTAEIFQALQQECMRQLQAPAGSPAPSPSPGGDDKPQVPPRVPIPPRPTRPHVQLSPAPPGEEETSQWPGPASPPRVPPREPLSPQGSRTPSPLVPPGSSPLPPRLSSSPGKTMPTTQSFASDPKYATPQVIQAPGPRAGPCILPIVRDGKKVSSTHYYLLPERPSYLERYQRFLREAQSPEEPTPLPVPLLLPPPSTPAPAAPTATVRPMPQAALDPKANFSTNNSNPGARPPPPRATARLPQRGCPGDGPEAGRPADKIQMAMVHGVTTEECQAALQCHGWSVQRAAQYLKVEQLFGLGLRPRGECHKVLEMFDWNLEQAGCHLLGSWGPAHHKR
Vascular endothelial growth factor receptor 2, sequence (P35968 whole entry): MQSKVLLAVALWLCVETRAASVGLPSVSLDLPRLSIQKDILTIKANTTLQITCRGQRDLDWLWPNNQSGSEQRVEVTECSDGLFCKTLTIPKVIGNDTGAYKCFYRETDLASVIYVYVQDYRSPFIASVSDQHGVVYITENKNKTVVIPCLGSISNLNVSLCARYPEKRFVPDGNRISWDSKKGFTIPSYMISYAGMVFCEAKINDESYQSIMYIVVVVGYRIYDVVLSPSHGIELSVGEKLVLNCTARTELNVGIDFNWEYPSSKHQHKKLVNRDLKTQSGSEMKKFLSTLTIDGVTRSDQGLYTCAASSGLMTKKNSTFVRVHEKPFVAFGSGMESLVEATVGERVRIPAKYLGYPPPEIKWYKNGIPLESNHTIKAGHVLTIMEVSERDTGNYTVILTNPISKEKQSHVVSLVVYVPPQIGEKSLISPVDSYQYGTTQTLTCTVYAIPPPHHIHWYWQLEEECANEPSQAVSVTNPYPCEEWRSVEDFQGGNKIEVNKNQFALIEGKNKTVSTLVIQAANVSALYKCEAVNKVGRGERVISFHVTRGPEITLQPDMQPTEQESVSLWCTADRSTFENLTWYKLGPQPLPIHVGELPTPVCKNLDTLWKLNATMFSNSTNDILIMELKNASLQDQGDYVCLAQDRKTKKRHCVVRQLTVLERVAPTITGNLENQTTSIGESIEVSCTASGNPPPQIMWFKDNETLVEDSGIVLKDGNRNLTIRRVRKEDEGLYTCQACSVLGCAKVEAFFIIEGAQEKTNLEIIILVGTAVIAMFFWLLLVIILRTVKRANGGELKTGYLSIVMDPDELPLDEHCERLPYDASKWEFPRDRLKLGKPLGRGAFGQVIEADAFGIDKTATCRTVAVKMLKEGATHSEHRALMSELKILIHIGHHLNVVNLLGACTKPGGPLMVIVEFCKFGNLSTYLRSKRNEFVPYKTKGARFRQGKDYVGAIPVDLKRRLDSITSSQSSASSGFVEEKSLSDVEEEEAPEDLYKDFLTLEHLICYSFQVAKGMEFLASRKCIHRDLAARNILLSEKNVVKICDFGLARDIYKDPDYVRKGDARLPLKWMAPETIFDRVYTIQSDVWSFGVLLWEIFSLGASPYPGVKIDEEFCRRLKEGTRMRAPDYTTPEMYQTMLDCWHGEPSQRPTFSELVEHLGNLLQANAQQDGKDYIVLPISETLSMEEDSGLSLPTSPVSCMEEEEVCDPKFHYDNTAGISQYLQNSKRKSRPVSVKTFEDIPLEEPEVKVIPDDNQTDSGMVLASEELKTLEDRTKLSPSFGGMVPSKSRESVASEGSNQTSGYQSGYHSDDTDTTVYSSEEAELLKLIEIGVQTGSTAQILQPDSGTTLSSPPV
Cyclin-dependent kinase 7, sequence (P50613 whole entry): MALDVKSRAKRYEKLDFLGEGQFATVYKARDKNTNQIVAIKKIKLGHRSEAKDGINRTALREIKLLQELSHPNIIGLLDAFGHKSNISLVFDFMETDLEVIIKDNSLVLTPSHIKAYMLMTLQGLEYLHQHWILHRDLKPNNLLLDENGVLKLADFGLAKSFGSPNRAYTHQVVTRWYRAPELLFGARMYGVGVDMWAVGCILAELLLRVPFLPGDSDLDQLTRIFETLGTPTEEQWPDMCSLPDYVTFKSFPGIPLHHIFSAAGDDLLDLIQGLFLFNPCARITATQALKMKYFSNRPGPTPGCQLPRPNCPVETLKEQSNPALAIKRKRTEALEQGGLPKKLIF

In the case of `O=C(NC1=C(NC2CCS(=O)(=O)C2)C(=O)c2ccccc2C1=O)c1ccccc1` (centres undefined), the EC50 in experiment [1] was 101 nM (active).

Turning to `CCCC(=O)NC(c1ccc(N(C)C)cc1)c1ccc2cccnc2c1O` (centres undefined), in experiment [2], the IC50 is 1550 nM (active). The EC50 was 22900 nM (inconclusive) in experiment [3] and > 350000 nM (not active) in experiment [5]. Also, the AC50 in experiment [4] was 745 nM (active).

For the compound `O=C1NC(=O)C(c2c[nH]c3ccccc23)=C1c1nc(N2CCNCC2)nc2ccccc12`, the Ki in experiment [6] was 794 nM (active); in experiment [7], 1000 nM (active); in experiment [8], > 2000 nM (inactive); in experiment [9], 794 nM (active); in experiment [10], 1260 nM (active); in experiment [11], > 1580 nM (inactive). Further, the Ki is 1580 nM (active) in experiment [12]; 2000 nM (active) in experiment [13]; > 2510 nM (inactive) in experiment [14]; > 3980 nM (inactive) in [15]; > 6310 nM (inactive) in [16]; 39.8 nM (active) in [17]. For the same compound, the Ki is > 2510 nM (inactive) in [18]; 794 nM (active) in experiment [19]; 501 nM (active) in experiment [20]; 50.1 nM (active) in experiment [21]; 3980 nM (active) in experiment [22]; 31.6 nM (active) in [23]. In addition, the Ki in [24] was > 3160 nM (inactive).
